Structures can show the parent of a compound that is named as a salt. Where two headings read alike, the source gives them in different places.

Results on eleven molecules are retold here after US10472341B2, “Bicyclic tetrahydrothiazepine derivatives useful for the treatment of neoplastic and/or infectious diseases” (APEIRON BIOLOGICS AG, priority 2015, dated 2019).

Type in all cases: cell-based
The subject of assay [1] is aCD3/aCD28-stimulated human PBMCs. In words: Cytokine production in aCD3/aCD28 stimulated human PBMCs. As to conditions: PBMC, 18 h. In a few lines:
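Ficoll-isolated human PBMCs at 1e6 cells/mL in X-Vivo15, stimulated with soluble anti-CD3/CD28 (OKT3 and 28.2, 1 μg/mL each) plus compound for 18 h at 37° C. Supernatant cytokines quantified by MSD or HTRF.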

Assay [2] relates to aCD3/aCD28-stimulated human CD4+-T-cells. The experiment in a line: IL-2 production and activation markers in aCD3/aCD28 stimulated isolated human CD4+-T-cells. As to conditions: IL-2 production at 3 μM compound. In a few lines: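 CD4+ T cells isolated from buffy-coat PBMCs by microbeads were plated in Xvivo medium (1.5*10^5 cells/well) and stimulated with anti-CD3/28 mAbs plus compound. IL-2 measured by ELISA in supernatants at 24 h or 48 h; CD25 and proliferation by flow cytometry, CD69 at 24 h. Activity classes based on IL-2 at 3 μM compound.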

The test system of assay [3] is CD4 T cells. In words: CD69 expression on aCD3/aCD28 stimulated isolated human CD4 T cells (flow cytometry). The following applies: 24 h after TCR stimulation, read-out: Activity Class CD69 (CD4). In a few lines:
(§1)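 Isolated CD4 and CD8 T cells plated at 80000 cells per well in Xvivo medium and stimulated with anti-CD3/28 mAbs in presence of compound. CD69 expression measured by flow cytometry 24 h after TCR stimulation.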

In assay [4] the test system is CD8 T cells. The experiment in a line: CD69 expression on aCD3/aCD28 stimulated isolated human CD8 T cells (flow cytometry). The following applies: T-cell, 24 h after TCR stimulation, read-out: Activity Class CD69 (CD8). In a few lines:
as §1
(In general: In flow cytometry, cells or beads pass a laser one at a time.)

The mark [5] stands for this setting: enhancement of IFN-γ production, read-out: Activity Class IFN-γ.
Setting [6] is: enhancement of IL-2 production, read-out: Activity Class IL-2.

Regarding `Cl.N[C@H]1CS(=O)(=O)c2cc(F)c(C(=O)NCc3ccc(F)cc3)cc2N(Cc2ccc(Cl)cc2)C1=O` [Example 68, (3R)-3-amino-5-[(4-chlorophenyl)methyl]-8-fluoro-N-[(4-fluorophenyl)methyl]-1,1,4-trioxo-2,3,4,5-tetrahydro-1λ^6,5-benzothiazepine-7-carboxamide hydrochloride], the EC50 in assay [1] (setting [5]), in assay [1] (setting [6]), in assay [3] and in assay [4] was less than 1580 nM throughout. In addition, the “Activity Class CD4+” value in assay [2] is “A (IL-2 production at 3 μM compound concentration >10 ng/mL)”.
Consider `Cl.N[C@H]1CS(=O)(=O)c2cc(F)c(C(=O)NCCCC(F)(F)F)cc2N(Cc2ccc(OC(F)(F)F)cc2)C1=O` [Example 73, (3R)-3-amino-8-fluoro-1,1,4-trioxo-N-(4,4,4-trifluorobutyl)-5-{[4-(trifluoromethoxy)-phenyl]methyl}-2,3,4,5-tetrahydro-1λ^6,5-benzothiazepine-7-carboxamide hydrochloride], for which the EC50 in assay [1] (setting [5]), in assay [1] (setting [6]), in assay [3] and in assay [4] was less than 1580 nM in each case. In addition, in assay [2], the “Activity Class CD4+” value was “A (IL-2 production at 3 μM compound concentration >10 ng/mL)”.
`Cl.N[C@H]1CS(=O)(=O)c2cc(F)c(C(=O)NCC3CCOCC3)cc2N(Cc2ccc(Cl)cc2)C1=O` [Example 71, (3R)-3-amino-5-[(4-chlorophenyl)methyl]-8-fluoro-N-(oxan-4-ylmethyl)-1,1,4-trioxo-2,3,4,5-tetrahydro-1λ^6,5-benzothiazepine-7-carboxamide hydrochloride]: the EC50 in assay [1] (setting [5]), in assay [1] (setting [6]), in assay [3] and in assay [4] was less than 1580 nM in each case. For the same molecule, the “Activity Class CD4+” value in assay [2] was “B (IL-2 production at 3 μM compound concentration between 2-10 ng/mL)”.
With `Cl.N[C@H]1CS(=O)(=O)c2cc(F)c(C(=O)NC3CCC(F)(F)C3)cc2N(Cc2ccc(Cl)cc2)C1=O` (stereo partly drawn) [Example 105, (3R)-3-amino-5-[(4-chlorophenyl)methyl]-N-(3,3-difluorocyclopentyl)-8-fluoro-1,1,4-trioxo-2,3,4,5-tetrahydro-1λ^6,5-benzothiazepine-7-carboxamide hydrochloride], the EC50 in assay [1] (setting [5]), in assay [1] (setting [6]), in assay [3] and in assay [4] was less than 1580 nM each time. The “Activity Class CD4+” value in assay [2] was “A (IL-2 production at 3 μM compound concentration >10 ng/mL)”.
For the molecule `CCCCNC(=O)c1cc2c(cc1F)S(=O)(=O)C[C@H](N)C(=O)N2Cc1ccc(Cl)cc1.Cl` [Example 69, (3R)-3-amino-N-butyl-5-[(4-chlorophenyl)methyl]-8-fluoro-1,1,4-trioxo-2,3,4,5-tetrahydro-1λ^6,5-benzothiazepine-7-carboxamide hydrochloride], the EC50 in assay [1] (setting [5]), in assay [1] (setting [6]), in assay [3] and in assay [4] was less than 1580 nM in each case. In addition, the “Activity Class CD4+” value in assay [2] was “A (IL-2 production at 3 μM compound concentration >10 ng/mL)”.
Regarding `Cl.N[C@H]1CS(=O)(=O)c2cc(F)c(C(=O)NCC3CCOCC3)cc2N(Cc2ccc(OC(F)(F)F)cc2)C1=O` [Example 72, (3R)-3-amino-8-fluoro-N-(oxan-4-ylmethyl)-1,1,4-trioxo-5-{[4-(trifluoromethoxy)-phenyl]methyl}-2,3,4,5-tetrahydro-1λ^6,5-benzothiazepine-7-carboxamide hydrochloride], the EC50 in assay [1] (setting [5]) was less than 1580 nM; in assay [1] (setting [6]), less than 1580 nM; in assay [3], less than 1580 nM; in assay [4], 1580 to 5010 nM. Also, the “Activity Class CD4+” value in assay [2] was “A (IL-2 production at 3 μM compound concentration >10 ng/mL)”.
For `COc1ccc(CNC(=O)c2ccc3c(c2)N(Cc2ccccc2)C(=O)[C@@H](N)CS3(=O)=O)cc1` [Example 152, (3R)-3-amino-5-benzyl-N-[(4-methoxyphenyl)methyl]-1,1,4-trioxo-2,3,4,5-tetrahydro-1λ^6,5-benzothiazepine-7-carboxamide], the EC50 in assay [1] (setting [5]) was 1580 to 5010 nM; in assay [1] (setting [6]), more than 5010 nM; in assay [3], 1580 to 5010 nM; in assay [4] it was 1580 to 5010 nM.
`COc1ccc(CN2C(=O)[C@@H](N)CS(=O)(=O)c3cc(F)c(C(=O)NCCCC(F)(F)F)cc32)cc1` [Example 141, (3R)-3-amino-8-fluoro-5-[(4-methoxyphenyl)methyl]-1,1,4-trioxo-N-(4,4,4-trifluorobutyl)-2,3,4,5-tetrahydro-1λ^6,5-benzothiazepine-7-carboxamide]: the EC50 in assay [1] (setting [5]), in assay [1] (setting [6]), in assay [3] and in assay [4] was less than 1580 nM throughout.
Regarding `C#CCOc1ccc(CNC(=O)c2cc3c(cc2F)S(=O)(=O)C[C@H](N)C(=O)N3Cc2ccc(Cl)cc2)cc1` [Example 178, (3R)-3-amino-5-[(4-chlorophenyl)methyl]-8-fluoro-1,1,4-trioxo-N-{[4-(prop-2-yn-1-yloxy)phenyl]methyl}-2,3,4,5-tetrahydro-1λ^6,5-benzothiazepine-7-carboxamide], the EC50 in assay [1] (setting [5]), in assay [1] (setting [6]), in assay [3] and in assay [4] was less than 1580 nM in each case.
With `N[C@H]1C[S@+]([O-])c2cc(F)c(C(=O)NCCCC(F)(F)F)cc2N(Cc2ccc(Cl)cc2)C1=O` (single isomer, unassigned) [Example 122, hydrochloride], the EC50 in assay [1] (setting [5]) was less than 1580 nM; in assay [1] (setting [6]) it was 1580 to 5010 nM; in assay [3], 1580 to 5010 nM; in assay [4], 1580 to 5010 nM.
Regarding `COc1ccc(CN2C(=O)[C@@H](N)CS(=O)(=O)c3ccc(C(=O)NC4CCC(F)(F)CC4)cc32)cc1` [Example 154, (3R)-3-amino-N-(4,4-difluorocyclohexyl)-5-[(4-methoxyphenyl)methyl]-1,1,4-trioxo-2,3,4,5-tetrahydro-1λ^6,5-benzothiazepine-7-carboxamide], the EC50 was 1580 to 5010 nM in assay [1] (setting [5]), more than 5010 nM in assay [1] (setting [6]), 1580 to 5010 nM in assay [3] and less than 1580 nM in assay [4].
